In this experiment the target is human Granzyme B (hGranzyme B) (Homo sapiens, UniProt P10144). Nature of the experiment: Surface Plasmon Resonance (SPR) binding to human Granzyme B. The note with it: Table 8, 25° C. The procedure:
All reagents and solvents were purchased from commercial sources and used “as is” unless otherwise noted. Reaction progress and synthetic intermediate analysis were assessed by LCMS (UV detection with ESI, APCI, or other mass detection) when applicable using a MeCN/water gradient with either TFA, formic acid, or NH4HCO3 modifier. Silica gel and reverse-phase flash column chromatography were conducted with commercially available pre-packed columns. Reverse-phase preparative HPLC purification was performed on preparative HPLC instruments with UV and MS detection using a MeCN/water gradient with either TFA, formic acid, or NH4OH modifier. Unless otherwise noted, all KD data presented in tables refers to the surface plasmon resonance assay that is described in the Biological Assay section.
The kinetics of test peptide binding to human Granzyme B (hGranzyme B) was determined by SPR. All experiments were performed at 25° C. using the Biacore 8k+ instrument (Cytiva, Marlborough, MA). The Biacore 8k+ Insight Evaluation Software Version 3.0 was used to fit the data with a 1:1 binding model to determine the association rate constant ka (M^−1s^−1, where “M” equals molar and “s” equals seconds) and the dissociation rate constant kd (s^−1). These rate constants were used to calculate the equilibrium dissociation constant, KD (M)=kd/ka. To measure the binding kinetics of peptides of interest, surfaces were prepared by a capture method to a Series S Streptavidin (SA) chip using a 1×HBS-EP+ running buffer (Cytiva). hGranzyme B was diluted to 10 μg/mL in 1×HBS-EP+ and flowed over spot 2 of each flow cell on the chip at a flow rate of 10 μl/min for 20 s to achieve a level of capture of ~1100 RU. An unmodified spot 1 of each flow cell was used as a matrix binding control or reference surface. Binding kinetics were measured using single cycle kinetics at 25° C. by injecting 5 concentrations with 3-fold serial dilutions of test peptides from […] to 1 μM. Compound dilutions were performed manually in a running buffer containing 1×HBS-EP+(Cytiva), and a final concentration of 2% DMSO. The interaction analyses over hGranzyme B, were performed using a 120 s association time and a 900 s dissociation time. All experiments were conducted at a flow rate of […] with a data collection rate of 10 Hz.
Peptide dilution series included 2 zero concentration points (no compound) which were averaged and subtracted from the peptide concentration injection as DMSO control responses. Binding data acquired from the reference surface (matrix binding control) were subtracted from the binding data for hGranzyme B surface on the chip to determine specific binding. Next, the association phase data were solvent corrected to account for any signal fluctuation throughout the experiment due to subtle DMSO concentration differences. Corrected response data were analyzed using the Biacore 8k+ Evaluation Software Version 3.0 according to the manufacturer. SPR data for representative compounds of the disclosure are found in Table 8.

Bridge positions count the residues as written; N and C are the ends. Square brackets hold non-standard residues; d marks the D form. Peptide text beside a SMILES is read from it. * marks the point of attachment. X1 = O=C(O)CN1CCN(CC(=O)O)CC(Cc2ccc(NC(=S)*)cc2)N(CC(=O)O)CC1; NMeF = CN[C@@H](Cc1ccccc1)C(=O)O; Propionyl = CCC(=O)*

human Granzyme B (hGranzyme B), sequence (P10144 21-247): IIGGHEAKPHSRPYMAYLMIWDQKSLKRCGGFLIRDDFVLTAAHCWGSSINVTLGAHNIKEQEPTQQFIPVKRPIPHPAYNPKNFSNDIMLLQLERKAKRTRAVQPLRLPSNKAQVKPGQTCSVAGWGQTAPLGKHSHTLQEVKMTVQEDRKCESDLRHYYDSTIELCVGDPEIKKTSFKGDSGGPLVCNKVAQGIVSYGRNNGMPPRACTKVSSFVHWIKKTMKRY

`CC(C)[C@@H]1NC(=O)[C@H](CC(=O)O)NC(=O)[C@H](Cc2ccc(O)cc2)NC(=O)[C@H](Cc2ccc(O)cc2)NC(=O)[C@H](Cc2ccccc2)N(C)C(=O)[C@H](Cc2ccccc2)N(C)C(=O)[C@H](Cc2ccccc2)NC(=O)CSC[C@@H](C(=O)NCC(=O)NCC(=O)N[C@@H](CCCCNC(=S)Nc2ccc(CC3CN(CC(=O)O)CCN(CC(=O)O)CCN3CC(=O)O)cc2)C(N)=O)NC(=O)[C@H](Cc2c[nH]cn2)NC(=O)[C@H](Cc2ccccc2)N(C)C(=O)[C@H](Cc2ccc(O)cc2)NC(=O)[C@H](C(C)C)NC(=O)[C@H](CC(=O)O)NC(=O)[C@H](C(C)C)NC(=O)[C@H](CC(=O)O)NC1=O` (stereo partly shown) [Compound 3a, *F.NMeF.NMeF.Y.Y.D.V.D.V.D.V.Y.NMeF.H.*C.G.G.K(NOTA)-NH2] ({CH2CO}-F[NMeF][NMeF]YYDVDVDVY[NMeF]HCGGK(X1)-NH2; thioether N-15): binding was put at a Kd of 1 nM. This lies in the single-digit nanomolar range.
Molecule `CC(C)[C@@H]1NC(=O)[C@H](CC(=O)O)NC(=O)[C@H](Cc2ccc(O)cc2)NC(=O)[C@H](Cc2ccc(O)cc2)NC(=O)[C@H](Cc2ccccc2)N(C)C(=O)[C@H](Cc2ccccc2)N(C)C(=O)[C@H](Cc2ccccc2)NC(=O)CSC[C@@H](C(=O)NCC(=O)N[C@@H](CCCCN)C(=O)N[C@@H](CCCCN)C(N)=O)NC(=O)[C@H](Cc2c[nH]cn2)NC(=O)[C@H](Cc2ccccc2)N(C)C(=O)[C@H](Cc2ccc(O)cc2)NC(=O)[C@H](C(C)C)NC(=O)[C@H](CC(=O)O)NC(=O)[C@H](C(C)C)NC(=O)[C@H](CC(=O)O)NC1=O` [Compound 13a, *F.NMeF.NMeF.Y.Y.D.V.D.V.D.V.Y.NMeF.H.*C.G.K.K-NH2] ({CH2CO}-F[NMeF][NMeF]YYDVDVDVY[NMeF]HCGKK-NH2; thioether N-15) showed a Kd of 0.1 nM.
Next, `CC(C)[C@@H]1NC(=O)[C@H](CC(=O)O)NC(=O)[C@H](C)NC(=O)[C@H](CC(=O)O)NC(=O)[C@H](Cc2ccc(O)cc2)NC(=O)[C@H](Cc2ccc(O)cc2)NC(=O)[C@H](Cc2ccccc2)N(C)C(=O)[C@H](Cc2ccccc2)N(C)C(=O)[C@H](Cc2ccccc2)NC(=O)CSC[C@@H](C(=O)NCC(N)=O)NC(=O)[C@H](Cc2c[nH]cn2)NC(=O)[C@H](Cc2ccccc2)N(C)C(=O)[C@H](Cc2ccc(O)cc2)NC(=O)[C@H](C(C)C)NC(=O)[C@H](CC(=O)O)NC1=O` [Compound 20a, *F.NMeF.NMeF.Y.Y.D.A.D.V.D.V.Y.NMeF.H.*C.G-NH2] ({CH2CO}-F[NMeF][NMeF]YYDADVDVY[NMeF]HCG-NH2; thioether N-15): 288 nM; `CCC(=O)NCCCC[C@H](NC(=O)CNC(=O)CNC(=O)[C@@H]1CSCC(=O)N[C@@H](Cc2ccccc2)C(=O)N(C)[C@@H](Cc2ccccc2)C(=O)N(C)[C@@H](Cc2ccccc2)C(=O)N[C@@H](Cc2ccc(O)cc2)C(=O)N[C@@H](Cc2ccc(O)cc2)C(=O)N[C@@H](CC(=O)O)C(=O)N[C@@H](C(C)C)C(=O)N[C@@H](CC(=O)O)C(=O)N[C@@H](C(C)C)C(=O)N[C@@H](CC(=O)O)C(=O)N[C@@H](C(C)C)C(=O)N[C@@H](Cc2ccc(O)cc2)C(=O)N(C)[C@@H](Cc2ccccc2)C(=O)N[C@@H](Cc2c[nH]cn2)C(=O)N1)C(N)=O` [Compound 4a, *F.NMeF.NMeF.Y.Y.D.V.D.V.D.V.Y.NMeF.H.*C.G.G.K(Prop)-NH2] ({CH2CO}-F[NMeF][NMeF]YYDVDVDVY[NMeF]HCGGK(Propionyl)-NH2; thioether N-15): 1.1 nM.
Regarding `CC(C)[C@@H]1NC(=O)[C@H](CC(=O)O)NC(=O)[C@H](Cc2ccc(O)cc2)NC(=O)[C@H](Cc2ccc(O)cc2)NC(=O)[C@H](Cc2ccccc2)N(C)C(=O)[C@H](Cc2ccccc2)N(C)C(=O)[C@H](Cc2ccccc2)NC(=O)CSC[C@@H](C(=O)NCC(N)=O)NC(=O)[C@H](C)NC(=O)[C@H](Cc2ccccc2)N(C)C(=O)[C@H](Cc2ccc(O)cc2)NC(=O)[C@H](C(C)C)NC(=O)[C@H](CC(=O)O)NC(=O)[C@H](C(C)C)NC(=O)[C@H](CC(=O)O)NC1=O` [Compound 14a, *F.NMeF.NMeF.Y.Y.D.V.D.V.D.V.Y.NMeF.A.*C.G-NH2] ({CH2CO}-F[NMeF][NMeF]YYDVDVDVY[NMeF]ACG-NH2; thioether N-15), the Kd worked out at 0.8 nM. The Kd values of the last two molecules are within 1.5-fold of each other.
In the case of `CC(C)[C@@H]1NC(=O)[C@H](CC(=O)O)NC(=O)[C@H](C(C)C)NC(=O)[C@H](CC(=O)O)NC(=O)[C@H](C(C)C)NC(=O)[C@H](CC(=O)O)NC(=O)[C@H](Cc2ccc(O)cc2)NC(=O)[C@H](Cc2ccc(O)cc2)NC(=O)[C@H](Cc2ccccc2)N(C)C(=O)[C@H](Cc2ccccc2)N(C)C(=O)[C@H](Cc2ccccc2)NC(=O)CSC[C@@H](C(=O)NCC(N)=O)NC(=O)[C@H](Cc2c[nH]cn2)NC(=O)[C@H](Cc2ccccc2)N(C)C(=O)[C@H](C)NC1=O` [Compound 21a, *F.NMeF.NMeF.Y.Y.D.V.D.V.D.V.A.NMeF.H.*C.G-NH2] ({CH2CO}-F[NMeF][NMeF]YYDVDVDVA[NMeF]HCG-NH2; thioether N-15), the Kd was determined as 453 nM.
The value for `CC(C)[C@@H]1NC(=O)[C@H](CC(=O)O)NC(=O)[C@H](C(C)C)NC(=O)[C@H](CC(=O)O)NC(=O)[C@H](Cc2ccc(O)cc2)NC(=O)[C@H](Cc2ccc(O)cc2)NC(=O)[C@H](Cc2ccccc2)N(C)C(=O)[C@H](Cc2ccccc2)N(C)C(=O)[C@H](Cc2ccccc2)NC(=O)CSC[C@@H](C(=O)NCC(N)=O)NC(=O)[C@H](Cc2c[nH]cn2)NC(=O)[C@H](Cc2ccccc2)N(C)C(=O)[C@H](Cc2ccc(O)cc2)NC(=O)[C@H](C)NC(=O)[C@H](CC(=O)O)NC1=O` [Compound 17a, *F.NMeF.NMeF.Y.Y.D.V.D.V.D.A.Y.NMeF.H.*C.G-NH2] ({CH2CO}-F[NMeF][NMeF]YYDVDVDAY[NMeF]HCG-NH2; thioether N-15) was 10.7 nM.
As to `CC(C)[C@@H]1NC(=O)[C@H](CC(=O)O)NC(=O)[C@H](C)NC(=O)[C@H](Cc2ccc(O)cc2)NC(=O)[C@H](Cc2ccccc2)N(C)C(=O)[C@H](Cc2ccccc2)N(C)C(=O)[C@H](Cc2ccccc2)NC(=O)CSC[C@@H](C(=O)NCC(=O)N[C@@H](CCCCN)C(N)=O)NC(=O)[C@H](Cc2c[nH]cn2)NC(=O)[C@H](Cc2ccccc2)N(C)C(=O)[C@H](Cc2ccc(O)cc2)NC(=O)[C@H](C(C)C)NC(=O)[C@H](CC(=O)O)NC(=O)[C@H](C(C)C)NC(=O)[C@H](CC(=O)O)NC1=O` [Compound 10a, *F.NMeF.NMeF.Y.A.D.V.D.V.D.V.Y.NMeF.H.*C.G.K-NH2] ({CH2CO}-F[NMeF][NMeF]YADVDVDVY[NMeF]HCGK-NH2; thioether N-15), the Kd came to 1 nM.
As to `CC(C)[C@@H]1NC(=O)[C@H](CC(=O)O)NC(=O)[C@H](C)NC(=O)[C@H](Cc2ccc(O)cc2)NC(=O)[C@H](Cc2ccccc2)N(C)C(=O)[C@H](Cc2ccccc2)N(C)C(=O)[C@H](Cc2ccccc2)NC(=O)CSC[C@@H](C(=O)NCC(=O)N[C@@H](CCCCN)C(=O)N[C@@H](CCCCN)C(N)=O)NC(=O)[C@H](Cc2c[nH]cn2)NC(=O)[C@H](Cc2ccccc2)N(C)C(=O)[C@H](Cc2ccc(O)cc2)NC(=O)[C@H](C(C)C)NC(=O)[C@H](CC(=O)O)NC(=O)[C@H](C(C)C)NC(=O)[C@H](CC(=O)O)NC1=O` [Compound 11a, *F.NMeF.NMeF.Y.A.D.V.D.V.D.V.Y.NMeF.H.*C.G.K.K-NH2] ({CH2CO}-F[NMeF][NMeF]YADVDVDVY[NMeF]HCGKK-NH2; thioether N-15), binding was put at a Kd of 2.1 nM.
In turn, `CC(C)[C@@H]1NC(=O)[C@H](CC(=O)O)NC(=O)[C@H](Cc2ccc(O)cc2)NC(=O)[C@H](Cc2ccc(O)cc2)NC(=O)[C@H](C)NC(=O)[C@H](Cc2ccccc2)N(C)C(=O)[C@H](Cc2ccccc2)NC(=O)CSC[C@@H](C(=O)NCC(=O)NCC(=O)N[C@@H](CCCCN)C(N)=O)NC(=O)[C@H](Cc2c[nH]cn2)NC(=O)[C@H](Cc2ccccc2)N(C)C(=O)[C@H](Cc2ccc(O)cc2)NC(=O)[C@H](C(C)C)NC(=O)[C@H](CC(=O)O)NC(=O)[C@H](C(C)C)NC(=O)[C@H](CC(=O)O)NC1=O` [Compound 9a, *F.NMeF.A.Y.Y.D.V.D.V.D.V.Y.NMeF.H.*C.G.G.K-NH2] ({CH2CO}-F[NMeF]AYYDVDVDVY[NMeF]HCGGK-NH2; thioether N-15) registered a Kd of 188 nM. Against the preceding molecule, the Kd is about 90-fold higher.

Source of the values: patent US20260297134A1, “CYCLIC PEPTIDES AS PET IMAGING AGENTS OF GRANZYME B” (Merck Sharp & Dohme LLC, priority 2023, published 2026).
